Consider 12 compounds from patent US12319703B2, “Macrocyclic fused pyrazoles as Mcl-1 inhibitors” (ASCENTAGE PHARMA (SUZHOU) CO., LTD., priority 2019, dated 2025).

Values after ≈ are worked out from the molar mass of the structure shown.

For data set [1] the following is noted: from CCOC(=O)c1c(CCCOc2cc(S)cc3ccccc23)c2ccc(Cl)c(-c3c(CSCc4cc(CBr)n(C)n4)nn4c3CCC4)c2n1C; thioether bond; K2CO3; acetonitrile; 3.14 mM; 25.0 °C; 3.0 h; 6 steps.
Another data set deals with OPM-2 cells. As to the kind of experiment: Cell viability assay (OPM-2 cells), CCK-8. The format is cell-based. To be noted: Homo sapiens, OPM-2, 24 h, WST, 5% FBS, read-out: OPM2 (WST, 5% FBS). An outline of the steps:
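OPM-2 cells from DSMZ were tested for viability with a Cell Counting Kit-8 (CCK-8) assay. Serially diluted compound (100 μL) was added to 96-well plates, then 100 μL of cell suspension (20000 cells/well) was added, and plates were incubated at 37° C. under 5% CO2 for 24 hours. After 20 μL CCK-8 solution and 4 hours of incubation, absorbance was read at 450 nm. Readings were normalized to vehicle and IC50 was fitted by nonlinear regression in GraphPad Prism 6.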

Another data set concerns NCI-H929 cells. Description: Cell viability assay (NCI-H929 cells), CCK-8. The format is cell-based. To be noted: Homo sapiens, NCI-H929, 24 h, WST, 5% FBS.
Data set [2] concerns the target T1, Mcl-1 protein (residues 171-323) (Homo sapiens, UniProt Q07820).
T1 construct: Tag-free Mcl-1 protein (residues 171-323) was used in the FP assay
Description: Inhibition of Mcl-1 by fluorescence polarization (FP) competitive binding assay. The following applies: FAM-Bid tracer 2 nM, Mcl-1 20 nM, 30 min. A digest of the protocol: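 FAM-Bid peptide (2 nM) was competed against Mcl-1 (20 nM) in PBS with 0.01% BGG and 0.01% Triton X-100 at 5% final DMSO. Anisotropy was read as mP over a 10-point dilution series. IC50 came from a sigmoidal dose-response nonlinear fit.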

Another data set can be described thus: Kinetic solubility assay. Format: physicochemical. To be noted: PBS buffer pH 6.5, aqueous buffer, thermodynamic from solid; pH 6.5 PBS buffer, HPLC; read-out: Solubility (pH 6.5, μg/mL). As to the method: Representative Compounds of the Disclosure were tested in a solubility assay with pH 6.5 PBS buffer. PBS buffer was prepared by dissolving 4.86 g of potassium dihydrogen phosphate and 5.09 g of disodium hydrogen phosphate dodecahydrate in 1 L of ultrapure water to have final pH value of 6.5. In the solubility assay, 0.5 mg of test sample was dissolved in 1 mL of methanol and the stock solution was transferred into 2 mL EP tube, and evaporated at 50° C. for 3 h. To the tube was added 1 mL of PBS buffer and the mixture was stirred and shaken for 1-2 h. The solution was allowed to stand overnight and then filtered before HPLC analysis. Another 1.5 mg of the sample was dissolved in 3 mL of methanol to prepare a calibration curve with a series of concentration range of 5-500 μM. The solubility of each sample was determined by the measured peak area in HPLC.

T1 sequence (Q07820 171-323): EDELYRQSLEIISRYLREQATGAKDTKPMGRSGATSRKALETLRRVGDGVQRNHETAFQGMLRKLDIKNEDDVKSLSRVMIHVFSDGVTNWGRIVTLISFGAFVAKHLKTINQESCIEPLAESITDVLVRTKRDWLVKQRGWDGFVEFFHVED

In the case of `Cn1nc2cc1CSc1cc(c3ccccc3c1)OCCCc1c(C(=O)O)n(C)c3c(c(Cl)ccc13)-c1c(nn3c1CCC3)CSC2`, the ring closure, yield of all isomers in data set [1] came out at 3%.

Regarding `Cc1oc2nc1CSc1cc(c3ccccc3c1)OCCCc1c(C(=O)O)n(C)c3c(c(Cl)ccc13)-c1c(nn3c1OCC3)CSC2` [compound 38, (Z)-1^6-chloro-1^1,6^5-dimethyl-2^2,2^3-dihydro-1^1H-10-oxa-4,8-dithia-2(7,6)-pyrazolo[5,1-b]oxazola-6(2,4)-oxazola-1(7,3)-indola-9(3,1)-naphthalenacyclotridecaphane-1^2-carboxylic acid], the IC50 is 5880 nM in the data set on OPM-2 cells, 5990 nM in the data set with NCI-H929 cells and 85 nM in data set [2]. The solubility in “Kinetic solubility assay” was determined as 127 µg/mL (≈ 185 µM).

In the case of `Cc1nc2sc1CSc1cc(c3ccccc3c1)OCCCc1c(C(=O)O)n(C)c3c(c(Cl)ccc13)-c1c(nn3c1CCC3)CSC2` [compound 5, 1^6-chloro-1^1,6^4-dimethyl-2^5,2^6-dihydro-1^1H,2^4H-10-oxa-4,8-dithia-6(2,5)-thiazola-1(7,3)-indola-2(3,2)-pyrrolo[1,2-b]pyrazola-9(3,1)-naphthalenacyclotridecaphane-1^2-carboxylic acid], the IC50 stood at 973 nM with OPM-2 cells, 960 nM in the data set with NCI-H929 cells and 11.3 nM in data set [2]. The solubility in “Kinetic solubility assay” worked out at 2 µg/mL (≈ 2.85 µM).

As for `Cn1nc2cc1CSCc1nn3c(c1-c1c(Cl)ccc4c(c(C(=O)O)n(C)c14)CCCOc1cc(cc4ccccc14)SC2)CCC3` [compound 7, (Z)-1^6-chloro-1^1,6^1-dimethyl-2^5,2^6-dihydro-1^1H,2^4H,6^1H-10-oxa-4,8-dithia-1(7,3)-indola-2(3,2)-pyrrolo[1,2-b]pyrazola-6(5,3)-pyrazola-9(3,1)-naphthalenacyclotridecaphane-1^2-carboxylic acid], the IC50 in the data set with OPM-2 cells came out at 774 nM; in the data set with NCI-H929 cells, 1130 nM; in data set [2], 150 nM. Moreover, the solubility in “Kinetic solubility assay” turned out to be 1 µg/mL (≈ 1.46 µM).

With `Cn1nc2cc1CSc1cc(c3ccc(F)cc3c1)OCCCc1c(C(=O)O)n(C)c3c(c(Cl)ccc13)-c1c(nn3c1CCC3)CN(S(C)(=O)=O)C2` [compound 44, (Z)-1^6-chloro-9^6-fluoro-1^1,6^1-dimethyl-4-(methylsulfonyl)-2^5,2^6-dihydro-1^1H,2^4H,6^1H-10-oxa-8-thia-4-aza-1(7,3)-indola-2(3,2)-pyrrolo[1,2-b]pyrazola-6(3,5)-pyrazola-9(3,1)-naphthalenacyclotridecaphane-1^2-carboxylic acid], the results for the IC50 (with OPM-2 cells; in the data set on NCI-H929 cells; in data set [2]) were 506 nM, 156 nM and 15 nM, respectively. In addition, in the data set “Kinetic solubility assay”, the solubility is over 400 µg/mL.

In the case of `Cn1nc2cc1CSc1cc(c3cc(Cl)ccc3c1)OCCCc1c(C(=O)O)n(C)c3c(c(Cl)ccc13)-c1c(nn3c1COCC3)CSC2` [compound 18, (Z)-1^6,9^7-dichloro-1^1,6^1-dimethyl-2^6,2^7-dihydro-1^1H,2^4H,6^1H-10-oxa-4,8-dithia-2(3,2)-pyrazolo[5,1-c][1,4]oxazina-1(7,3)-indola-6(3,5)-pyrazola-9(3,1)-naphthalenacyclotridecaphane-1^2-carboxylic acid], the IC50 with OPM-2 cells is 3490 nM; in the data set on NCI-H929 cells, 1620 nM; in data set [2], 19 nM. Besides, the solubility in the data set “Kinetic solubility assay” was under 1 µg/mL.

Turning to `Cc1c2c(nn1C)CN(C1CC1)Cc1cc(n(C)n1)CSc1cc(c3ccccc3c1)OCCCc1c(C(=O)O)n(C)c3c-2c(Cl)ccc13` [compound 49, (Z)-1^6-chloro-4-cyclopropyl-1^1,2^1,2^5,6^1-tetramethyl-1^1H,2^1H,6^1H-10-oxa-8-thia-4-aza-1(7,3)-indola-2(4,3),6(3,5)-dipyrazola-9(3,1)-naphthalenacyclotridecaphane-1^2-carboxylic acid], the IC50 came to 167 nM in the data set with OPM-2 cells, 55 nM in the data set with NCI-H929 cells and 21 nM in data set [2]. Moreover, the solubility in the data set “Kinetic solubility assay” stood at 28 µg/mL (≈ 40.3 µM).

Turning to `Cn1nc2cc1CSc1cc(c3ccc(F)cc3c1)OCCCc1c(C(=O)O)n(C)c3c(c(Cl)ccc13)-c1c(nn3c1CCC3)CSC2` [compound 27, (Z)-1^6-chloro-9^6-fluoro-1^1,6^1-dimethyl-2^5,2^6-dihydro-1^1H,2^4H,6^1H-10-oxa-4,8-dithia-1(7,3)-indola-2(3,2)-pyrrolo[1,2-b]pyrazola-6(3,5)-pyrazola-9(3,1)-naphthalenacyclotridecaphane-1^2-carboxylic acid], the IC50 with OPM-2 cells was 153 nM; in the data set on NCI-H929 cells, 51 nM; in data set [2], 24.9 nM. In addition, in the data set “Kinetic solubility assay”, the solubility worked out at 52 µg/mL (≈ 74 µM).

Take `Cn1nc2cc1CSc1cc(c3ccccc3c1)OCCCc1c(C(=O)O)n(C)c3c(c(Cl)ccc13)-c1c(nn3c1CSCC3)CSC2` [compound 21, (Z)-1^6-chloro-1^1,6^1-dimethyl-2^6,2^7-dihydro-1^1H,2^4H,6^1H-10-oxa-4,8-dithia-2(3,2)-pyrazolo[5,1-c][1,4]thiazina-1(7,3)-indola-6(3,5)-pyrazola-9(3,1)-naphthalenacyclotridecaphane-1^2-carboxylic acid]: the IC50 with OPM-2 cells was determined as 291 nM; in the data set with NCI-H929 cells, 116 nM; in data set [2], 15.8 nM. The solubility in “Kinetic solubility assay” was found to be 3 µg/mL (≈ 4.19 µM).

On to `Cn1nc2cc1CSc1cc(c3cc(F)ccc3c1)OCCCc1c(C(=O)O)n(C)c3c(c(Cl)ccc13)-c1c(nn3c1COCC3)CSC2` [compound 16, (Z)-1^6-chloro-9^7-fluoro-1^1,6^1-dimethyl-2^6,2^7-dihydro-1^1H,2^4H,6^1H-10-oxa-4,8-dithia-2(3,2)-pyrazolo[5,1-c][1,4]oxazina-1(7,3)-indola-6(3,5)-pyrazola-9(3,1)-naphthalenacyclotridecaphane-1^2-carboxylic acid], for which the IC50 with OPM-2 cells was determined as 2400 nM; in the data set on NCI-H929 cells, 360 nM; in data set [2], 20.7 nM. The solubility in the data set “Kinetic solubility assay” is under 1 µg/mL.

For `Cc1oc2nc1CSc1cc(c3ccccc3c1)OCCCc1c(C(=O)O)n(C)c3c(c(Cl)ccc13)-c1c(nn3c1CCC3)CSC2` [compound 11, (Z)-1^6-chloro-1^1,6^5-dimethyl-2^5,2^6-dihydro-1^1H,2^4H-10-oxa-4,8-dithia-6(2,4)-oxazola-1(7,3)-indola-2(3,2)-pyrrolo[1,2-b]pyrazola-9(3,1)-naphthalenacyclotridecaphane-1^2-carboxylic acid], the IC50 with OPM-2 cells was over 10000 nM; with NCI-H929 cells, 3540 nM; in data set [2] it was 10.6 nM. Also, the solubility in “Kinetic solubility assay” is under 1 µg/mL.

Regarding `Cc1cc2ccc1CSc1cc(c3ccc(F)cc3c1)OCCCc1c(C(=O)O)n(C)c3c(c(Cl)ccc13)-c1c(nn3c1CCC3)CSC2` [compound 30, 1^6-chloro-9^6-fluoro-1^1,6^3-dimethyl-2^5,2^6-dihydro-1^1H,2^4H-10-oxa-4,8-dithia-1(7,3)-indola-2(3,2)-pyrrolo[1,2-b]pyrazola-9(3,1)-naphthalena-6(1,4)-benzenacyclotridecaphane-1^2-carboxylic acid], the IC50 came out at 255 nM with OPM-2 cells, 196 nM with NCI-H929 cells and 14.2 nM in data set [2]. For the same compound, the solubility in “Kinetic solubility assay” is under 1 µg/mL.
